According to US5380715A, “Ap4 A as a hypotensive agent” (Fujirebio Inc., priority 1992, dated 1995):
“Also recorded” adds a separate entry of the source. Read-outs that look alike come from different tables or passages of the source.

What was measured:
[1] = test system: rabbit platelet aggregation; assay: Platelet aggregate dispersing effect; format: cell-based; conditions: ADP- and PAF-induced; result in words (FIG. 5)
Method: Fresh blood samples were collected from male Japanese white rabbits weighing 2-3 kg. Blood was anticoagulated with citric acid (1 ml 3.8% citric acid solution +9 ml blood). These samples were centrifuged at room temperature for 20 min at 200×g to obtained platelet-rich plasma (PRP). Furthermore, the supernatant liquid was centrifuged for 10 min at 1500×g to obtained platelet-poor plasma (PPP). Aggregation of platelests was measured photometrically in a Nihon Kohden hema tracer equipped with a mechanical stirring device and with a chart record. At this time, the chart recorder was calibrated as follows: the light transmission obtained with PPP was set as 100% transmission and the optical density of PRP was taken as 0% transmission. Maximal aggregation, i.e. the maximal change in optical density of the primary wave calculated in percent light transmission. From the study, it was determined that ADP, Ap3A, PAF(platelet activating factor) and collagen induced maximal aggregations at a concentration of 1×10^-5 M, 1×10^-4 M, 1.9×10^-7 M and 5 μg/kg, respectively. In the following studies, these aggregating agents were used at maximal dose. The effect of Ap4A on platelet aggregation by ADP and Ap3A were tested. In this time, Ap4A was pretreated for 1 or 10 min before the addition of aggregating agents. […]

[2] = test system: human platelet-aggregation; conditions: words; cited from earlier work
[3] = words; cited from earlier work
[4] = test system: rats; assay: Effects on cerebral blood flow, blood pressure and heart rate in anesthetized rats; format: in vivo, male SD rats; conditions: rat
Method: Male SD rats (Charles River Japan Inc.) were anesthetized with intravenous urethane (0.5 g/kg)+α-chloralose (80 mg/kg).
A femoral artery was catheterized to monitor the blood pressure and heart rate, while a femoral vein was catheterized for the aministration of each of the test drugs.
The head of each rat was fixed to a brain position fixing device and a hole was made at a top portion of the cranium. A laser blood flow probe was mounted on the cranium so as to touch the surface of the cerebral cortex through the hole, whereby the cerebral blood flow thereof was measured. A predetermined amount of Ap4A was applied by bolus injection and by infusion.

[5] = test system: rabbit platelet aggregation; assay: Inhibitory effect on rabbit platelet aggregation; format: cell-based; conditions: for IC50: Oryctolagus cuniculus, Platelet
Method: Fresh blood samples were collected from male Japanese white rabbits weighing 2-3 kg. Blood was anticoagulated with citric acid (1 ml 3.8% citric acid solution +9 ml blood). These samples were centrifuged at room temperature for 20 min at 200×g to obtained platelet-rich plasma (PRP). Furthermore, the supernatant liquid was centrifuged for 10 min at 1500×g to obtained platelet-poor plasma (PPP). Aggregation of platelests was measured photometrically in a Nihon Kohden hema tracer equipped with a mechanical stirring device and with a chart record. At this time, the chart recorder was calibrated as follows: the light transmission obtained with PPP was set as 100% transmission and the optical density of PRP was taken as 0% transmission. Maximal aggregation, i.e. the maximal change in optical density of the primary wave calculated in percent light transmission. From the study, it was determined that ADP, Ap3A, PAF(platelet activating factor) and collagen induced maximal aggregations at a concentration of 1×10^-5 M, 1×10^-4 M, 1.9×10^-7 M and 5 μg/kg, respectively. In the following studies, these aggregating agents were used at maximal dose. The effect of Ap4A on platelet aggregation by ADP and Ap3A were tested. In this time, Ap4A was pretreated for 1 or 10 min before the addition of aggregating agents. Also, after the platelet aggregation was induced by addition of ADP, PAF or collagen to PRP, the platelet aggregate dispersing effect of Ap4A was tested.

[6] = test system: isolated rat heart; assay: Protective effect on deoxygenation-induced cardiac damage (Langendorff heart); set-up: species or system male SD rats; conditions: 1×10^-4 M, 33 min global ischemia; words
Method: The protective effect of Ap4A against ischemia by use of a Langendorff heart (Aronson, CE. and Serlick, ER. Toxicol. Appl. Pharmac. 38, 479-488 (1976)) was tested.
Deoxygenation-induced cardiac damage according to the method of Aronson & Serlich (Toxical. appl. Parmac. 38, 479-488, 1976) with slight modifications. Male SD rats (Charles River Japan Inc.) weighing 320 to 390 g were anesthetized with ether, and heart quickly isolated. The isolated rat heart was mounted and perfused with Krebs-Henselite solution (118 mM NaCl, 4.7 mM KCl, 2.5 mM CaCl2, 1.2 mM MgSO4, 1.2 mM KH2 PO4, 25 mM NaHCO3 and 10 mM glucose) bubbled with 95% O2 +5% CO2 at a flow rates of 14 ml/min. at 37° C. The myocardial function was monitored by the left ventricular pressure (L.V.P.), differential values of L.V.P. (dp/dt), heart rate (H.R.) and perfused pressure (P.P.) through a branch of an aortic canula mounted on the heart. After equilibrate for 40 min., global ischemia was produced by stopping the perfusing solution and the heart was incubated for 33 min. in 50 ml Krebs-Henselite bubble with N2 gas (control). 33 min. later, the buffer solution was removed. The perfusion was re-started, and the myocardial function was measured. The heart was incubated in Krebs-Henselite solution containing Ap4A 1×10^-4 M during global ischemia.

[7] = test system: rats; assay: Recovery of blood pressure after gradual hypotension in rats; format: in vivo, male SD rats; conditions: rat
Method: FIG. 1 is a graph showing the recovery of the blood pressure of rats anesthetized with enflurane with time, when each of Ap4A ( ), PG E1 ( ) and nitroglycerin ( ) was used as a test drug to attain gradual hypotension, with the blood pressure before the administration of each test drug being set 100% for reference.
The recovery of blood pressure after gradual hypotension by use of each of Ap4A, PG E1 and nitroglycerin was also tested.
The control values were obtained before the administration of each test drug. Each test drug was then administered using a syringe in a dose-dependent manner for 15 minutes. The percentage (%) of the decrease of blood pressure was determined when stabilized. Changes in heart rate (H.R.) at the administration of each test drug were measured. Furthermore,the recovery of mean blood pressure after intravenous infusion of each test drug was also determined from the decrease in heart rate and the blood pressure at a maximum dose of each test drug.
In a test similar to the above, each of Ap4A, PG E1, and nitroglycerin was administered to rats, so that about 65% fall in blood pressure, about 55% fall in blood pressure, and about 35% fall in blood pressure were stepwise attained. With respect to each agent, the recovery of blood pressure was tested.

Nc1ncnc2c1ncn2[C@@H]1O[C@H](COP(=O)(O)OP(=O)(O)OP(=O)(O)OP(=O)(O)OC[C@H]2O[C@@H](n3cnc4c(N)ncnc43)[C@H](O)[C@@H]2O)[C@@H](O)[C@H]1O [Ap4A, diadenosine 5',5'"-p^1,p^4 -tetraphosphate]
platelet aggregate dispersing effect [1]: Both ADP- and PAF-induced platelet aggregations were dispersed; also recorded: dispersing aggregated lumps formed by PAF (platelet activating factor) and ADP
ADP-induced human platelet-aggregation inhibitory effect [2]: ADP-induced human platelet-aggregation inhibitory effect
arrhythmic effect [3]: an arrhythmic effect
B.P. Δ% ([4]; bolus injection 0.1 μg/kg): 0%
C.B.F. Δ% ([4]; bolus injection 0.1 μg/kg): 2.7%
H.R. Δ% ([4]; bolus injection 0.1 μg/kg): 4.0%
B.P. Δ% ([4]; bolus injection 0.3 μg/kg): 0%
C.B.F. Δ% ([4]; bolus injection 0.3 μg/kg): 7.9%
H.R. Δ% ([4]; bolus injection 0.3 μg/kg): -7.0%
B.P. Δ% ([4]; bolus injection 1 μg/kg): 5.0 ± 2.9%
C.B.F. Δ% ([4]; bolus injection 1 μg/kg): 9.3 ± 2.5%
H.R. Δ% ([4]; bolus injection 1 μg/kg): 10.3 ± 10.1%
B.P. Δ% ([4]; bolus injection 3 μg/kg): -6.2 ± 5.0%
C.B.F. Δ% ([4]; bolus injection 3 μg/kg): 10.0 ± 2.0%
H.R. Δ% ([4]; bolus injection 3 μg/kg): 4.6 ± 3.4%
B.P. Δ% ([4]; bolus injection 10 μg/kg): -9.9 ± 4.6%
C.B.F. Δ% ([4]; bolus injection 10 μg/kg): 21.7 ± 6.0%
H.R. Δ% ([4]; bolus injection 10 μg/kg): 3.2 ± 2.0%
B.P. Δ% ([4]; bolus injection 30 μg/kg): -23.2 ± 3.5%
C.B.F. Δ% ([4]; bolus injection 30 μg/kg): 16.8 ± 3.5%
H.R. Δ% ([4]; bolus injection 30 μg/kg): 6.4 ± 1.2%
B.P. Δ% ([4]; bolus injection 100 μg/kg): -34.4 ± 2.5%
C.B.F. Δ% ([4]; bolus injection 100 μg/kg): 15.8 ± 4.0%
H.R. Δ% ([4]; bolus injection 100 μg/kg): 7.4 ± 3.5%
B.P. Δ% ([4]; bolus injection 300 μg/kg): -40.5 ± 5.2%
C.B.F. Δ% ([4]; bolus injection 300 μg/kg): 9.8 ± 4.0%
H.R. Δ% ([4]; bolus injection 300 μg/kg): 10.9 ± 4.5%
B.P. Δ% ([4]; bolus injection 1 mg/kg): -50.4 ± 1.4%
C.B.F. Δ% ([4]; bolus injection 1 mg/kg): 8.5 ± 3.4%
H.R. Δ% ([4]; bolus injection 1 mg/kg): 7.4 ± 6.0%
B.P. Δ% ([4]; bolus injection 3 mg/kg): -54.0 ± 2.5%
C.B.F. Δ% ([4]; bolus injection 3 mg/kg): 23.7 ± 9.3%
H.R. Δ% ([4]; bolus injection 3 mg/kg): 6.2 ± 21.1%
B.P. Δ% ([4]; bolus injection 10 mg/kg): -63.5 ± 5.6%
C.B.F. Δ% ([4]; bolus injection 10 mg/kg): 46.3 ± 11.5%
H.R. Δ% ([4]; bolus injection 10 mg/kg): -78.8 ± 2.7%
B.P. Δ% ([4]; bolus injection 30 mg/kg): -60.7 ± 7.0%
C.B.F. Δ% ([4]; bolus injection 30 mg/kg): 34.0 ± 16.9%
cerebral blood flow ([4]; bolus injection, result in words): improved by bolus injection of Ap4A
increase in C.B.F. ([4]; bolus, when about 20-40% fall in blood pressure): 10-20%
cerebral blood flow ([4]; continuous administration, result in words (FIG. 2)): The same effects were also observed in the continuous administration of Ap4A; also recorded: Cerebral blood flow was increased during continuous administration of Ap4A
time to submaximal/maximum anti-platelet aggregating effect [5]: ≤ 1 min
inhibition of platelet aggregation ([5]; ADP- and Ap3A-induced, result in words): Both ADP- and Ap3A-induced platelet aggregations were inhibited; also recorded: inhibits ADP-induced and Ap3A (diadenosine 5', 5'"-p^1,p^4 -triphosphate)-induced platelet-aggregation reactions
IC50 ([5]; read-out: Ap4A IC50, ADP (1 × 10^-5 M) induced, 1 min. pretreatment): 205 µM
IC50 ([5]; read-out: Ap4A IC50, ADP (1 × 10^-5 M) induced, 10 min. pretreatment): 42 µM
IC50 ([5]; read-out: Ap4A IC50, Ap3A (1 × 10^-4 M) induced, 1 min. pretreatment): 9.06 µM
IC50 ([5]; read-out: Ap4A IC50, Ap3A (1 × 10^-4 M) induced, 10 min. pretreatment): 49.9 µM
time to substantially maximum inhibitory effect ([5]; result in words): substantially maximum effect is obtained within one minute
prevention of cardiac damage (loss of L.V.P., dp/dt and H.R.) [6]: significantly prevented cardiac damage (loss of L.V.P., dp/dt and H.R.) induced by deoxygenation; also recorded: the above-mentioned impairment in the untreated Langendorff heart was found to be prevented
recovered blood pressure (before administration = 100%) ([7]; 1 minute): about 70%
recovered blood pressure (before administration = 100%) ([7]; 5 minutes): about 90%
recovered blood pressure (before administration = 100%) ([7]; 10 minutes): 100%
fall in blood pressure attained before recovery ([7]; stepwise): about 65%
rapidness of the recovery of blood pressure ([7]; order in words): Ap4A>PG E1 >nitroglycerin
rebound hypertension ([7]; result in words): without rebound hypertension
